Reference: DBAASP
Converted amounts (≈) assume the structure as drawn. Each block holds one compound with its values, some of them ahead of it.

Columns and labels:
Assay in all cases: ≥ marks a high value that may be exact or a test limit, other limits are often not marked, values filed in µg/mL are converted to µM
[1] = test system: Candida albicans IHEM 8060
Candida glabrata = test system: Candida glabrata
[2] = test system: Bacillus licheniformis X39
[3] = test system: Psychrobacter faecalis X29
[4] = test system: Rhodococcus rhodochrous X15
[5] = test system: Staphylococcus aureus ATCC 2592
[6] = test system: Staphylococcus carnosus KHS
[7] = test system: Acinetobacter baumannii 5821
[8] = test system: Enterobacter cloacae 06-267
[9] = test system: Enterobacter cloacae 14-262
Escherichia coli 09-240 = test system: Escherichia coli 09-240
Escherichia coli 09-280 = test system: Escherichia coli 09-280
Escherichia coli 170 = test system: Escherichia coli 170
Escherichia coli 5509 = test system: Escherichia coli 5509
[10] = test system: Escherichia coli ATCC 25922
[11] = test system: Klebsiella pneumoniae 01-239
[12] = test system: Klebsiella pneumoniae 01-252
[13] = test system: Pseudomonas aeruginosa 3599
[14] = test system: Pseudomonas aeruginosa 5106
[15] = test system: Pseudomonas aeruginosa ATCC 27853
[16] = test system: Pseudomonas aeruginosa ATCC 9027
[17] = test system: Staphylococcus aureus 01-001
[18] = test system: Staphylococcus aureus 06-051
[19] = test system: Staphylococcus aureus ATCC 25923
[20] = test system: Staphylococcus aureus ATCC 29213
Escherichia coli O157:H7 = test system: Escherichia coli O157:H7
[21] = test system: Staphylococcus aureus 1056
[22] = test system: Candida albicans ATCC 10231
[23] = test system: Klebsiella aerogenes ATCC 13048
[24] = test system: Staphylococcus aureus ATCC 29231
[25] = test system: Staphylococcus aureus MW2
[26] = test system: Bacillus subtilis IFO 3336
[27] = test system: Escherichia coli IFO 3301

MIC [22]: 29.3 µM (≈ 64 µg/mL) | MIC [23]: ≥ 58.6 µM | MIC [24]: 7.33 µM (≈ 16 µg/mL) | MIC [25]: 14.7 µM (≈ 32 µg/mL)
Compound: CC[C@H](C)[C@H](NC(=O)[C@H](CCCCN)NC(=O)[C@H](CCCCN)NC(=O)[C@H](CC(C)C)NC(=O)[C@@H](NC(=O)[C@H](CCCCN)NC(=O)[C@H](Cc1c[nH]c2ccccc12)NC(=O)[C@@H](N)CC(C)C)[C@@H](C)CC)C(=O)N[C@@H](Cc1c[nH]c2ccccc12)C(=O)N[C@@H](CCCN=C(N)N)C(=O)N[C@H](C(=O)NCC(=O)N[C@@H](Cc1c[nH]c2ccccc12)C(=O)N[C@@H](CC(N)=O)C(=O)N[C@@H](Cc1c[nH]c2ccccc12)C(=O)N[C@@H](CCCN=C(N)N)C(=O)O)C(C)C [LWKILKKIWRVGWNWR]

MIC [26]: 7.61 µM (≈ 10 µg/mL) | MIC [27]: 15.2 µM (≈ 20 µg/mL)
Compound: NC(N)=NCCC[C@H](NC(=O)[C@H](CS)NC(=O)[C@H](CCCN=C(N)N)NC(=O)[C@H](CS)NC(=O)[C@H](CCCN=C(N)N)NC(=O)[C@H](CS)NC(=O)[C@H](CCCN=C(N)N)NC(=O)[C@H](CS)NC(=O)[C@@H](N)CCCN=C(N)N)C(=O)N[C@@H](CS)C(=O)O [RCRCRCRCRC]

Further lines, the compound ahead of its results:

Compound: CC[C@H](C)[C@@H]1NC(=O)[C@@H](N)CSSC[C@@H]2NC(=O)[C@@H]3CSSC[C@@H](C(=O)N[C@@H](CCCN=C(N)N)C(=O)O)NC(=O)[C@H](Cc4ccc(O)cc4)NC(=O)CNC(=O)[C@H](C)NC(=O)[C@H](C(C)C)NC(=O)[C@H](Cc4c[nH]c5ccccc45)NC(=O)CNC(=O)[C@@H]4CCCN4C(=O)[C@H](CCC(=O)O)NC(=O)[C@H](CCCCN)NC(=O)[C@H](Cc4cnc[nH]4)NC(=O)[C@H](CSSC[C@H](NC(=O)CNC(=O)[C@H](CC(N)=O)NC(=O)CNC(=O)[C@H](CC(N)=O)NC(=O)[C@H](CCCCN)NC1=O)C(=O)N[C@@H](CCC(N)=O)C(=O)N1CCC[C@H]1C(=O)N[C@@H](CC(=O)O)C(=O)NCC(=O)N[C@@H](CO)C(=O)N[C@@H](CCC(N)=O)C(=O)NCC(=O)N[C@@H](CC(N)=O)C(=O)N3)NC(=O)[C@H](Cc1ccc(O)cc1)NC(=O)[C@H](CCCN=C(N)N)NC(=O)[C@H](CO)NC2=O [CIKNGNGCQPDGSQGNCCSRYCHKEPGWVAGYCR]
MIC [1]: 17.3 µM (≈ 63.9 µg/mL) | MIC (Candida glabrata): 17.3 µM (≈ 63.9 µg/mL)

Compound: CC[C@H](C)[C@@H]1NC(=O)[C@H](CCCCN)NC(=O)[C@@H](NC(=O)[C@H](Cc2ccccc2)NC(=O)[C@H](CC(C)C)NC(=O)[C@@H](NC(=O)[C@@H]2CCCN2C(=O)[C@@H](NC(=O)[C@@H](NC(=O)[C@H](CCCCN)NC(=O)CNC(=O)[C@@H](NC(=O)[C@H](CC(C)C)NC(=O)CNC(=O)[C@H](CC(C)C)NC(=O)[C@H](CC(C)C)NC(=O)[C@H](CO)NC(=O)CNC(=O)[C@H](CC(C)C)NC(=O)[C@@H](N)Cc2ccccc2)C(C)C)C(C)C)C(C)C)[C@@H](C)O)CSSC[C@@H](C(=O)O)NC(=O)[C@H](CCCCN)NC(=O)[C@H](CCCCN)NC(=O)[C@H](CO)NC1=O [FLGSLLGLVGKVVPTLFCKISKKC]
MIC [2]: 9.8 µM (≈ 25 µg/mL) | MIC [3]: 4.9 µM (≈ 12.5 µg/mL) | MIC [4]: 1.22 µM (≈ 3.1 µg/mL) | MIC [5]: 1.22 µM (≈ 3.1 µg/mL) | MIC [6]: 4.9 µM (≈ 12.5 µg/mL)

Compound: CC[C@H](C)[C@H](NC(=O)[C@H](C)NC(=O)[C@H](CC(N)=O)NC(=O)[C@H](CCCCN)NC(=O)[C@@H](NC(=O)CNC(=O)[C@H](CCC(=O)O)NC(=O)[C@H](Cc1c[nH]c2ccccc12)NC(=O)[C@H](CC(C)C)NC(=O)[C@H](CCCCN)NC(=O)CNC(=O)[C@H](Cc1c[nH]c2ccccc12)NC(=O)[C@H](Cc1ccccc1)NC(=O)CN)C(C)C)C(N)=O [GFWGKLWEGVKNAI]
MIC [7]: 7 µM (≈ 11.2 µg/mL) | MIC [8]: ≥ 32 µM | MIC [9]: 14 µM (≈ 22.5 µg/mL) | MIC (Escherichia coli 09-240): 14 µM (≈ 22.5 µg/mL) | MIC (Escherichia coli 09-280): ≥ 32 µM | MIC (Escherichia coli 170): ≥ 32 µM | MIC (Escherichia coli 5509): ≥ 32 µM | MIC [10]: 10 µM (≈ 16 µg/mL) | MIC [11]: 12 µM (≈ 19.2 µg/mL) | MIC [12]: ≥ 32 µM | MIC [13]: ≥ 32 µM | MIC [14]: ≥ 32 µM | MIC [15]: > 32 µM | MIC [16]: 10 µM (≈ 16 µg/mL) | MIC [17]: 4 µM (≈ 6.42 µg/mL) | MIC [18]: 4 µM (≈ 6.42 µg/mL) | MIC [19]: 15 µM (≈ 24.1 µg/mL) | MIC [20]: 4 µM (≈ 6.42 µg/mL)

Compound: CC(C)C[C@@H]1NC(=O)[C@H](Cc2cnc[nH]2)NC(=O)[C@H](C)NC(=O)[C@@H]2CCCN2C(=O)[C@@H]2CSSC[C@@H](C(=O)N[C@@H](CCCCN)C(=O)N[C@@H](Cc3c[nH]c4ccccc34)C(=O)N3CCC[C@H]3C(=O)N[C@@H](Cc3c[nH]c4ccccc34)C(=O)N[C@@H](CC(=O)O)C(=O)N[C@H](C(=O)O)C(C)C)NC(=O)[C@@H]3CSSC[C@H](NC(=O)[C@H](Cc4ccccc4)NC(=O)[C@@H](N)CC(C)C)C(=O)N[C@@H](CCCN=C(N)N)C(=O)N[C@@H](CCCCN)C(=O)NCC(=O)N[C@@H]([C@@H](C)O)C(=O)N[C@@H](CSSC[C@H](NC(=O)[C@H](CO)NC(=O)CNC(=O)[C@H](C(C)C)NC(=O)[C@H](CCCCN)NC(=O)[C@H](C(C)C)NC1=O)C(=O)N[C@@H](Cc1ccccc1)C(=O)NCC(=O)N[C@@H](Cc1ccccc1)C(=O)N[C@@H](CCCN=C(N)N)C(=O)N[C@@H](C)C(=O)N3)C(=O)N[C@@H](Cc1cnc[nH]1)C(=O)N[C@@H](Cc1ccccc1)C(=O)NCC(=O)NCC(=O)N2 [LFCRKGTCHFGGCPAHLVKVGSCFGFRACCKWPWDV]
MIC (Escherichia coli O157:H7): 0.321 µM (≈ 1.29 µg/mL) | MIC [21]: 0.291 µM (≈ 1.17 µg/mL)
